Species: Rattus norvegicus
Assay: DrugMatrix - Regimen: Daily Repeat
Format: toxicity, organism-based, Sprague-Dawley
Parameters: regimen Daily Repeat, gender Male, age 6-8 weeks
Settings: in vivo, po, route oral GAVAGE, vehicle 100 % WATER; for ABSOLUTE BASOPHIL / ABSOLUTE EOSINOPHIL / ABSOLUTE LYMPHOCYTE / ABSOLUTE MONOCYTE / ABSOLUTE SEGMENTED NEUTROPHIL / BASOPHIL / EOSINOPHIL / ERYTHROCYTE COUNT / HEMATOCRIT / HEMOGLOBIN / LEUKOCYTE COUNT / LYMPHOCYTE / MEAN CORPUSCULAR HEMOGLOBIN / MEAN CORPUSCULAR HEMOGLOBIN CONCENTRATION / MEAN CORPUSCULAR VOLUME / MONOCYTE / NEUTROPHIL / NUCLEATED RED BLOOD CELLS / PLATELET COUNT: tissue Blood; for ALANINE AMINOTRANSFERASE / ALBUMIN / ALKALINE PHOSPHATASE / ASPARTATE AMINOTRANSFERASE / BLOOD UREA NITROGEN / CARBON DIOXIDE / CHLORIDE / CHOLESTEROL / CREATINE PHOSPHOKINASE / CREATININE / GLUCOSE / LACTATE DEHYDROGENASE / LIPASE / PHOSPHORUS / POTASSIUM / SODIUM / TOTAL BILIRUBIN / TOTAL PROTEIN / URIC ACID: tissue Plasma
[1] = 28 mg/kg, 120 h, dose level Low, time 5 day
[2] = 1500 mg/kg, 72 h, dose level High, time 3 day
[3] = 1500 mg/kg, 120 h, dose level High, time 5 day

CS(=O)(=O)c1ccc([C@@H](O)[C@@H](CO)NC(=O)C(Cl)Cl)cc1 [THIAMPHENICOL]
ABSOLUTE BASOPHIL [1]: 0 CELLS/uL | ABSOLUTE EOSINOPHIL [1]: 95.33 CELLS/uL | ABSOLUTE LYMPHOCYTE [1]: 6576.67 CELLS/uL | ABSOLUTE MONOCYTE [1]: 0 CELLS/uL | ABSOLUTE SEGMENTED NEUTROPHIL [1]: 828 CELLS/uL | BASOPHIL [1]: 0% | EOSINOPHIL [1]: 1.33% | ERYTHROCYTE COUNT [1]: 5.62 x10E6/uL | HEMATOCRIT [1]: 36.03% | HEMOGLOBIN [1]: 13.5 G/DL | LEUKOCYTE COUNT [1]: 7.5 x10E3/uL | LYMPHOCYTE [1]: 87.67% | MEAN CORPUSCULAR HEMOGLOBIN [1]: 24.03 pg | MEAN CORPUSCULAR HEMOGLOBIN CONCENTRATION [1]: 37.47 G/DL | MEAN CORPUSCULAR VOLUME [1]: 64.07 fL | MONOCYTE [1]: 0% | NEUTROPHIL [1]: 11% | NUCLEATED RED BLOOD CELLS [1]: 0 /100WBC | PLATELET COUNT [1]: 1264 x10E3/uL | ALANINE AMINOTRANSFERASE [1]: 51 u/L | ALBUMIN [1]: 4.33 G/DL | ALKALINE PHOSPHATASE [1]: 379.67 u/L | ASPARTATE AMINOTRANSFERASE [1]: 78 u/L | BLOOD UREA NITROGEN [1]: 15 mg/dL | CARBON DIOXIDE [1]: 28 mmol/L | CHLORIDE [1]: 101 MEQ/L | CHOLESTEROL [1]: 82.67 mg/dL | CREATINE PHOSPHOKINASE [1]: 219 u/L | CREATININE [1]: 0.19 mg/dL | GLUCOSE [1]: 146.67 mg/dL | LACTATE DEHYDROGENASE [1]: 121 u/L | LIPASE [1]: 8.33 u/L | PHOSPHORUS [1]: 12.2 mg/dL | POTASSIUM [1]: 5.86 MEQ/L | SODIUM [1]: 148.13 MEQ/L | TOTAL BILIRUBIN [1]: 0.23 mg/dL | TOTAL PROTEIN [1]: 6.37 G/DL | URIC ACID [1]: 1.07 mg/dL | ABSOLUTE BASOPHIL [2]: 0 CELLS/uL | ABSOLUTE EOSINOPHIL [2]: 242.33 CELLS/uL | ABSOLUTE LYMPHOCYTE [2]: 11370.67 CELLS/uL | ABSOLUTE MONOCYTE [2]: 0 CELLS/uL | ABSOLUTE SEGMENTED NEUTROPHIL [2]: 1353.67 CELLS/uL | BASOPHIL [2]: 0% | EOSINOPHIL [2]: 1.67% | ERYTHROCYTE COUNT [2]: 4.88 x10E6/uL | HEMATOCRIT [2]: 32.03% | HEMOGLOBIN [2]: 12.37 G/DL | LEUKOCYTE COUNT [2]: 12.97 x10E3/uL | LYMPHOCYTE [2]: 87.67% | MEAN CORPUSCULAR HEMOGLOBIN [2]: 25.37 pg | MEAN CORPUSCULAR HEMOGLOBIN CONCENTRATION [2]: 38.6 G/DL | MEAN CORPUSCULAR VOLUME [2]: 65.7 fL | MONOCYTE [2]: 0% | NEUTROPHIL [2]: 10.67% | NUCLEATED RED BLOOD CELLS [2]: 0 /100WBC | PLATELET COUNT [2]: 1202.33 x10E3/uL | ALANINE AMINOTRANSFERASE [2]: 42.67 u/L | ALBUMIN [2]: 4.27 G/DL | ALKALINE PHOSPHATASE [2]: 298 u/L | ASPARTATE AMINOTRANSFERASE [2]: 82 u/L | BLOOD UREA NITROGEN [2]: 18 mg/dL | CARBON DIOXIDE [2]: 24.33 mmol/L | CHLORIDE [2]: 110.67 MEQ/L | CHOLESTEROL [2]: 82.67 mg/dL | CREATINE PHOSPHOKINASE [2]: 343.67 u/L | CREATININE [2]: 0.16 mg/dL | GLUCOSE [2]: 201 mg/dL | LACTATE DEHYDROGENASE [2]: 99 u/L | LIPASE [2]: 8.33 u/L | PHOSPHORUS [2]: 12 mg/dL | POTASSIUM [2]: 5.55 MEQ/L | SODIUM [2]: 148.1 MEQ/L | TOTAL BILIRUBIN [2]: 0.1 mg/dL | TOTAL PROTEIN [2]: 5.8 G/DL | URIC ACID [2]: 2.17 mg/dL | ABSOLUTE BASOPHIL [3]: 0 CELLS/uL | ABSOLUTE EOSINOPHIL [3]: 0 CELLS/uL | ABSOLUTE LYMPHOCYTE [3]: 10293 CELLS/uL | ABSOLUTE MONOCYTE [3]: 39 CELLS/uL | ABSOLUTE SEGMENTED NEUTROPHIL [3]: 901.33 CELLS/uL | BASOPHIL [3]: 0% | EOSINOPHIL [3]: 0% | ERYTHROCYTE COUNT [3]: 5.44 x10E6/uL | HEMATOCRIT [3]: 34.1% | HEMOGLOBIN [3]: 13.07 G/DL | LEUKOCYTE COUNT [3]: 11.23 x10E3/uL | LYMPHOCYTE [3]: 91.67% | MEAN CORPUSCULAR HEMOGLOBIN [3]: 24.03 pg | MEAN CORPUSCULAR HEMOGLOBIN CONCENTRATION [3]: 38.33 G/DL | MEAN CORPUSCULAR VOLUME [3]: 62.67 fL | MONOCYTE [3]: 0.33% | NEUTROPHIL [3]: 8% | NUCLEATED RED BLOOD CELLS [3]: 0 /100WBC | PLATELET COUNT [3]: 1190 x10E3/uL | ALANINE AMINOTRANSFERASE [3]: 44.33 u/L | ALBUMIN [3]: 4.33 G/DL | ALKALINE PHOSPHATASE [3]: 313.67 u/L | ASPARTATE AMINOTRANSFERASE [3]: 87 u/L | BLOOD UREA NITROGEN [3]: 21.33 mg/dL | CARBON DIOXIDE [3]: 24.33 mmol/L | CHLORIDE [3]: 103 MEQ/L | CHOLESTEROL [3]: 75.67 mg/dL | CREATINE PHOSPHOKINASE [3]: 564.67 u/L | CREATININE [3]: 0.21 mg/dL | GLUCOSE [3]: 159 mg/dL | LACTATE DEHYDROGENASE [3]: 210 u/L | LIPASE [3]: 8.33 u/L | PHOSPHORUS [3]: 11.87 mg/dL | POTASSIUM [3]: 6.38 MEQ/L | SODIUM [3]: 144.57 MEQ/L | TOTAL BILIRUBIN [3]: 0.13 mg/dL | TOTAL PROTEIN [3]: 5.97 G/DL | URIC ACID [3]: 1.67 mg/dL

— ChEMBL document CHEMBL3885881, “DrugMatrix”
